Results from patent publication US5198439A, “Angiotension II antagonizing pyridine derivatives” (Imperial Chemical Industries PLC, priority 1990, dated 1993).

Legend:
AII receptors = target: T1, AII receptors (Cavia porcellus, UniProt Q9WV26); experiment: Test A: displacement of radiolabelled AII binding to guinea pig adrenal gland cell surface membranes; conditions: read-out: IC50 (concentration for 50% displacement of radiolabelled AII binding)
T1 construct: the source of cell surface membranes is the guinea pig adrenal gland; from tissue; host or cells: guinea pig adrenal gland, cell surface membrane fraction
T1 sequence (Q9WV26 1-359): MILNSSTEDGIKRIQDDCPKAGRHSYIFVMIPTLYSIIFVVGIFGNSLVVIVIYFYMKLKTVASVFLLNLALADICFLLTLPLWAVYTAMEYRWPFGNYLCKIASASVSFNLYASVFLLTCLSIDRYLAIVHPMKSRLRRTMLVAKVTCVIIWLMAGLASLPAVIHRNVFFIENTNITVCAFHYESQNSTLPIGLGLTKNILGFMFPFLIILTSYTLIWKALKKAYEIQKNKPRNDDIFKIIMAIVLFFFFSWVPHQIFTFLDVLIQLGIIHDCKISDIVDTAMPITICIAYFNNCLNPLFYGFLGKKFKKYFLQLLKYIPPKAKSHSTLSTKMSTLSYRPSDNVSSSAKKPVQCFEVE
Protocol: Test A: This in vitro procedure involves the incubation of the test compound initially at a concentration of 100 micromolar (or less) in a buffered mixture containing fixed concentrations of radiolabelled AII and a cell surface membrane fraction prepared from a suitable angiotensin target tissue. In this test, the source of cell surface membranes is the guinea pig adrenal gland which is well known to respond to AII. Interaction of the radiolabelled AII with its receptors (assessed as radiolabel bound to the particulate membrane fraction following removal of unbound radiolabel by a rapid filtration procedure such as is standard in such studies) is antagonized by compounds which also bind to the membrane receptor sites and the degree of antagonism (observed in the test as displacement of membrane-bound radioactivity) is determined readily by comparing the receptor-bound radioactivity in the presence of the test compound at the specified test concentration with a control value determined in the absence of the test compound. Using this procedure compounds showing at least 50% displacement of radiolabelled AII binding at a concentration of 10^-4 M are retested at lower concentrations to determine their potency. […]

[1] = system: angiotensin II-induced pressor responses; experiment: Test C: antagonism of angiotensin II-induced pressor responses in rats; type: in vivo; conditions: iv, rat, i.v. administration
Protocol: Test C: This in vivo test involves using terminally-anaesthetised or conscious rats in which an arterial catheter has been implanted under anaesthesia for the measurement of changes in blood pressure. The AII antagonistic effects of the test compound following oral or parenteral administration, are assessed against angiotensin II-induced pressor responses. To ensure that the effect is specific, the effect of the test compound on vasopressin-induced pressor responses may also be determined in the same preparation.

- IC50 (AII receptors): 50 nM
SMILES: COC(=O)c1c(OCc2ccc(-c3ccccc3-c3nnn[nH]3)cc2)cc(C)nc1C.Cl [Example 2, methyl 2,6-dimethyl-4-[(2'-(1H-tetrazol-5-yl)biphenyl-4-yl)methoxy]pyridine-3-carboxylate hydrochloride]
- ED50 [1]: 0.1 mg/kg
